Assay results from article PMC6761529 (Antimicrobial Agents and Chemotherapy, 2019).
Where “and” joins values, the source holds several entries; their conditions need not be identical. Equal values may be shown once. Read-outs that look alike come from different tables or passages of the source.

Experiments:
S. maltophilia K279a [1] = details: with avibactam; cited from earlier work
S. maltophilia K279a [2] = assay: MIC broth microdilution, S. maltophilia K279a; assay type: cell-based; details: for MIC: Stenotrophomonas maltophilia, K279A, read-out: MIC of β-lactam
Experimental: S. maltophilia K279a is a well-characterized isolate from Bristol, United Kingdom, and was obtained as previously reported ([46]).
(§1) MIC values were determined using broth microdilution, in triplicate, in cation-adjusted Mueller-Hinton broth (Sigma) according to the Clinical and Laboratory Standards Institute (CLSI) guidelines ([47]). […] Plates were incubated overnight at 37°C for 18 to 24 h, and the absorbance at 600 nm was read using a POLARstar Omega (BMG LabTech) plate reader.

[3] = test system: O=C(Cc1cccs1)N[C@@H]1C(=O)N2C(C(=O)O)=C(/C=C/c3ccc([N+](=O)[O-])cc3[N+](=O)[O-])CS[C@H]12; assay: purified protein, by the assay type; details: other: nitrocefin as substrate; standard error in parentheses, n = 3; pH 7.5; 25.0 °C
KPC-2 [4] = target: T1, KPC-2 (Klebsiella pneumoniae, UniProt Q9F663); details: cited from earlier work
KPC-2 [5] = target: T1, KPC-2; parameters: method as in PMID 29627985; details: cited from earlier work
OXA-48 = target: OXA-48; parameters: method as in PMID 29627985; details: cited from earlier work
L2 [6] = target: T2, L2 (Stenotrophomonas maltophilia, UniProt Q9RBQ1); assay: IC50, nitrocefin hydrolysis after 10-minute preincubation, L2; assay type: biochemical
Experimental: (§4) Kinetic parameters were calculated and analyzed using GraphPad Prism 6.
(§5) Diazabicyclooctanes were dissolved in DMSO (100 mM) and diluted to the desired concentration in 10 mM HEPES (pH 7.5) and 150 mM NaCl.

CTX-M-15 [7] = target: T3, CTX-M-15 (Escherichia coli, UniProt Q9EXV5); assay: biochemical
Experimental: as §4, §5

KPC-2 [8] = target: T1, KPC-2; details: after 24 hours of incubation; cited from earlier work
KPC-3 [9] = target: T4, KPC-3 (Klebsiella pneumoniae, UniProt Q9F663, H272Y); assay type: biochemical; details: nitrocefin as substrate; standard error in parentheses, n = 3
Experimental: as §4

KPC-4 [10] = target: T5, KPC-4 (Klebsiella pneumoniae, UniProt Q9F663, P103R/V239G); assay: Steady-state nitrocefin hydrolysis, KPC-4; assay type: biochemical; details: nitrocefin as substrate; standard error in parentheses, n = 3
Experimental: as §4

KPC-2 [11] = target: T1, KPC-2; assay type: biochemical; details: nitrocefin as substrate; standard error in parentheses, n = 3
Experimental: as §4

CTX-M-15 [12] = target: T3, CTX-M-15; assay: Direct competition of relebactam and nitrocefin (Kiapp, k2/K), CTX-M-15; assay type: biochemical
Experimental: as §4
(2) E+I⇌k−1k1E:I⇌k−2k2E-I→k3E-I′→k4E+P
(§6) Complete progress curves were fitted to equation 5 in order to obtain values for kobs (pseudo-first-order rate constant for inactivation).(5) A=vf*t+(v0−vf)*((1−e^−kobs*t)/kobs)+A0
(§7) ([I]) according to equation 6, with the uncorrected value for k2/K (k2/K′) then equal to the slope of the line.(6) kobs=k−2+k2/K^′*[I]

KPC-3 [13] = target: T4, KPC-3
Experimental: (§2) Final enzyme concentrations were as follows: 50 nM KPC-2, 5 nM KPC-3, 50 nM KPC-4, 50 pM CTX-M-15, and 50 pM L2. Complete progress curves were collected, and the results fitted to equation 8 to obtain koff.(8) A=vf*t+(v0−vf)*(1−e^−kofft)/koff+A0

KPC-4 [14] = target: T5, KPC-4
Experimental: as §2

KPC-2 [15] = target: T1, KPC-2; details: recombinant enzyme
Experimental: as §2

CTX-M-15 [16] = target: T3, CTX-M-15; details: recombinant enzyme
Experimental: as §2

L2 [17] = target: T2, L2; details: recombinant enzyme
Experimental: as §2

L2 [18] = target: T2, L2; assay: Direct competition of relebactam and nitrocefin (Kiapp, k2/K), L2; assay type: biochemical; details: Dixon plot, no preincubation; standard deviation in parentheses
Experimental: as §4
(2) E+I⇌k−1k1E:I⇌k−2k2E-I→k3E-I′→k4E+P
as §6, §7

[19] = target: Pseudomonas-derived cephalosporinase-3 (PDC-3); details: read-out: Kiapp; cited from earlier work
[20] = test system: K. pneumoniae Ecl8 pUBYT KPC-3; assay: microbe, parasite or virus in culture; assay type: cell-based; details: Klebsiella pneumoniae
Excerpt: (§3) The pUBYT vector containing blaKPC-3 under the ISKpn7 promoter was used as a template for site-directed mutagenesis to create pUBYT containing blaKPC-2 and blaKPC-4 with the same promoter ([45]). The single point mutation in KPC-2 (Y274H) and double point mutations in KPC-4 (P104R, V240G) were introduced using a QuikChange Lightning site-directed mutagenesis kit (Agilent Genomics) with the primers specified in Table S1 in the supplemental material. Klebsiella pneumoniae Ecl8 was transformed with the resulting pUBYT constructs via electroporation.
as §1

[21] = test system: K. pneumoniae Ecl8 pUBYT KPC-2; assay: microbe, parasite or virus in culture; assay type: cell-based; details: Klebsiella pneumoniae
Excerpt: as §3, §1

[22] = test system: K. pneumoniae Ecl8 pUBYT KPC-4; assay: microbe, parasite or virus in culture; assay type: cell-based; details: Klebsiella pneumoniae
Excerpt: as §3, §1

K. pneumoniae Ecl8 pUBYT = assay: MIC broth microdilution, K. pneumoniae Ecl8 pUBYT (empty vector); assay type: cell-based; details: Klebsiella pneumoniae, ECL8PUBYT, read-out: MIC of β-lactam
Excerpt: as §3, §1

[23] = test system: KPC variants expressed in K. pneumoniae Ecl8; assay type: cell-based, Klebsiella pneumoniae; details: in the presence of 4 mg liter^−1 relebactam
Excerpt: as §3, §1

[24] = ECL8PUBYTKPC3, read-out: MIC of β-lactam, no inhibitor present
[25] = ECL8PUBYTKPC2, read-out: MIC of β-lactam, no inhibitor present
[26] = ECL8PUBYTKPC4, read-out: MIC of β-lactam, no inhibitor present

C[C@H]1[C@H](NC(=O)/C(=N\OC(C)(C)C(=O)O)c2csc(N)n2)C(=O)N1S(=O)(=O)O [Aztreonam, aztreonam]
aztreonam MIC (S. maltophilia K279a [1]): 2 µg/mL
MIC (S. maltophilia K279a [2]; +REL (relebactam, 4 mg/liter)): 8 µg/mL
MIC (S. maltophilia K279a [2]; no inhibitor present): > 256 µg/mL
aztreonam MIC (S. maltophilia K279a [2]; addition of relebactam): 8 µg/mL
aztreonam MIC (S. maltophilia K279a [2]; without inhibitor): 256 µg/mL

L2 (Stenotrophomonas maltophilia)
Km [3]: 206 (27) µM
kcat [3]: 813 (41) s-1
kcat/Km [3]: 4e+06 M⁻¹ s⁻¹

CTX-M-15 (Escherichia coli)
Km [3]: 63 (11) µM
kcat [3]: 312 (8) s-1
kcat/Km [3]: 5e+06 M⁻¹ s⁻¹

O=C(NNC(=O)[C@@H]1CC[C@@H]2CN1C(=O)N2OS(=O)(=O)O)[C@@H]1CCCNC1 [WCK-5107, zidebactam]
Ki value, fold higher than avibactam (KPC-2 [4]): 5 fold
Ki value, fold higher than relebactam (KPC-2 [4]): 2 fold

N#C[C@@H]1CC[C@@H]2CN1C(=O)N2OS(=O)(=O)O [WCK-4234]
off rate (KPC-2 [5]): 0.00045 s⁻¹
Ki (OXA-48): 290 nM

NC(=O)[C@@H]1CC[C@@H]2CN1C(=O)N2OS(=O)(=O)O [Avibactam, avibactam]
IC50 (L2 [6]): 15 nM
IC50 (CTX-M-15 [7]): 3.4 nM
KPC-2 remaining acylated (KPC-2 [8]): 10%

O=C(Cc1cccs1)N[C@@H]1C(=O)N2C(C(=O)O)=C(/C=C/c3ccc([N+](=O)[O-])cc3[N+](=O)[O-])CS[C@H]12 [Nitrocefin, nitrocefin]
Km (KPC-3 [9]): 36 µM
kcat (KPC-3 [9]): 88 (8) s-1
Km (KPC-4 [10]): 59 µM
kcat (KPC-4 [10]): 166 (44) s-1
Km (KPC-2 [11]): 18.3 µM
kcat (KPC-2 [11]): 613 (9) s-1

O=C(NC1CCNCC1)[C@@H]1CC[C@@H]2CN1C(=O)N2OS(=O)(=O)O [Relebactam, relebactam]
Ki (CTX-M-15 [12]): 21000 nM
reduction in off-rate compared with KPC-2 (KPC-3 [13]; KPC-3 vs KPC-2): ~4.5 fold
t1/2 (KPC-3 [13]; recombinant enzyme): 58 min
reduction in off-rate compared with KPC-2 (KPC-4 [14]; KPC-4 vs KPC-2): ~4.5 fold
t1/2 (KPC-4 [14]; recombinant enzyme): 61 min
t1/2 (KPC-2 [15]): 13 min
t1/2 (CTX-M-15 [16]): 30 min
t1/2 (L2 [17]): 21 min
IC50 (L2 [6]): 470 nM
Ki (L2 [18]): 3000 nM and 2700 nM
Ki [19]: 3400 nM
IC50 (CTX-M-15 [7]): 400 nM

CC(C)(O/N=C(\C(=O)N[C@@H]1C(=O)N2C(C(=O)[O-])=C(C[n+]3ccccc3)CS[C@H]12)c1csc(N)n1)C(=O)O [Ceftazidime, ceftazidime]
MIC ([20]; ECL8PUBYTKPC3, read-out: MIC of β-lactam, +AVI (avibactam, 4 mg/liter)): < 0.125 µg/mL
MIC [20, 24]: 128 µg/mL
MIC ([21]; ECL8PUBYTKPC2, read-out: MIC of β-lactam, +AVI (avibactam, 4 mg/liter)): 0.125 µg/mL
MIC [21, 25]: 16 µg/mL
MIC ([22]; ECL8PUBYTKPC4, read-out: MIC of β-lactam, +AVI (avibactam, 4 mg/liter)): 1 µg/mL
MIC [22, 26]: 128 µg/mL
MIC (S. maltophilia K279a [2]; +AVI (avibactam, 4 mg/liter)): 8 µg/mL
MIC (S. maltophilia K279a [2]; no inhibitor present): 16 µg/mL
MIC (K. pneumoniae Ecl8 pUBYT): < 0.125 µg/mL

C[C@@H](O)[C@H]1C(=O)N2C(C(=O)O)=C(SCCN=CN)C[C@H]12 [Imipenem, imipenem]
MIC ([20]; ECL8PUBYTKPC3, read-out: MIC of β-lactam, +REL (relebactam, 4 mg/liter)): < 0.125 µg/mL
MIC [20, 24]: 16 µg/mL
MIC ([21]; ECL8PUBYTKPC2, read-out: MIC of β-lactam, +REL (relebactam, 4 mg/liter)): 0.5 µg/mL
MIC [21, 25]: 64 µg/mL
MIC ([22]; ECL8PUBYTKPC4, read-out: MIC of β-lactam, +REL (relebactam, 4 mg/liter)): 0.125 µg/mL
MIC [22, 26]: 0.5 µg/mL
MIC (S. maltophilia K279a [2]; +REL (relebactam, 4 mg/liter)): 64 µg/mL
MIC (S. maltophilia K279a [2]; no inhibitor present): 128 µg/mL
MIC (K. pneumoniae Ecl8 pUBYT): < 0.0625 µg/mL
imipenem MICs in all KPC producers [23]: ≤ 0.5 mg/L
